Several values for one entry are separate records, joined by “and”; a condition that tells them apart may be missing. Equal values may be shown once. Activity calls are given as the source filed them.
Experiments:
[1] = inhibition of Env-driven cell fusion – HIV entry, plate reader, dry powder, dose response (AID 687023); format: functional, cell-based
[2] = HIV-1 AD8 envelope cell-cell fusion blockers – cherry-pick, dose response (AID 652062); format: functional, cell-based;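 also: luciferase signal from cell-cell fusion driven by HIV-1 clade B AD8 Env; potency is for inhibitors of fusion seen as a drop in luminescence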
[3] = blockers of HIV-1 envelope-mediated cell-cell fusion – cherry-pick, dose response (AID 652057); format: functional, cell-based
[4] = T. cruzi growth inhibition in host cells, dose response, cell-based, plate reader, dry powder, set 2 (AID 652275); format: functional
[5] = mouse embryonic fibroblast toxicity – cell-based, plate reader, dry powder, set 2, cytotoxicity control, dose response (AID 652280); format: functional; conditions: NIH3T3
[6] = growth inhibition of MALME3 cells – cell-based, CellTiter-Glo luminescence, dry powder, set 5, orthogonal assay for MITF inhibitor project, dose response (AID 651584); format: functional; conditions: MALME-3
[7] = growth inhibition of SK-MEL-5 melanoma cells – cell-based, CellTiter-Glo luminescence, dry powder, set 8, orthogonal assay for MITF inhibitor project, dose response (AID 651586); format: functional
[8] = cytotoxicity in MITF-independent A375 cells – cell-based, CellTiter-Glo luminescence, dry powder, set 9, counter-screen for MITF modulator project, dose response (AID 651591); format: functional; conditions: A-375
[9] = inhibitors of TRPM1-promoter reporter in SK-MEL-5 – cell-based, luciferase, dry powder, set 9, MITF inhibitor project, dose response (AID 651588); format: functional
[10] = MITF Orthogonal Assay: SK-MEL-5 CTG Assay Measured in Cell-Based System Using Plate Reader - 2084-02_Inhibitor_Dose_DryPowder_Activity_Set7.; format: functional
[11] = MITF Orthogonal Assay: MALME3 CTG Assay Measured in Cell-Based System Using Plate Reader - 2084-04_Inhibitor_Dose_DryPowder_Activity_Set6.; format: functional; conditions: MALME-3
[12] = inhibitors of TRPM1-promoter reporter in SK-MEL-5 – cell-based, luciferase, dry powder, set 8, MITF inhibitor project, dose response (AID 624430); format: functional
[13] = melanocyte viability loss, MITF-dependent cells, cell-based, plate reader, dry powder, cytotoxicity control, dose response (AID 651920); format: functional
[14] = MITF: Counter assay: A375 proliferation Measured in Cell-Based System Using Plate Reader - 2084-03_Inhibitor_Dose_DryPowder_Activity_Set8.; format: functional; conditions: A-375
[15] = Late stage assay provider results from the probe development effort to identify inhibitors of the Plasmodium falciparum M18 Aspartyl Aminopeptidase (M18AAP): radiolabel-based cell-based dose response assay to identify compounds that inhibit P. falciparum growth in RBCs, Set 2..; format: functional
[16] = A Cell-Based Confirmatory Screen for Compounds that Inhibit VEEV, TC-83 (7).; format: functional
[17] = A Cell-Based Confirmatory Screen for Compounds that Inhibit VEEV, TC-83 (8).; format: functional
[18] = cells; conditions: HEK293
[19] = toxicity to A549 lung cells – cell-based, plate reader, dry powder, set 6, cytotoxicity control, dose response (AID 743312); format: functional
[20] = toxicity to HepG2 liver cells – cell-based, plate reader, dry powder, set 6, cytotoxicity control, dose response (AID 743311); format: functional

In the case of `CCCC#Cc1ccc2c(c1)O[C@@H](CN(C)S(=O)(=O)c1cccc(F)c1)[C@@H](C)CN([C@H](C)CO)S2(=O)=O`, the AC50 [1] is reported as 12.4 µM (active), the AC50 [2] is reported as 7.8 µM (active) and the AC50 [3] is reported as 10.8 µM (active).

For `Cc1cccc(-c2ccc([C@H]3[C@H](CO)N4CCCCN(Cc5cccnc5)C[C@@H]34)cc2)c1`, the AC50 [4] was 0.259 µM (active) and the AC50 [5] was 17.9 µM (active).

With `NS(=O)(=O)c1ccc(NC2=CC(=O)c3ccccc3C2=O)cc1` the AC50 [6] was 0.703 µM (active), the AC50 [7] was 0.751 µM (active) and the AC50 [8] was > 70 µM (inactive). The AC50 [9] was 1.23 µM (active), the AC50 [10] was 0.0771 µM (active) and the AC50 [11] was 0.703 µM (active). The AC50 [12] was 1.16 µM (active), the AC50 [13] was 7.15 µM (active) and 7.63 µM (active) and the AC50 [14] was > 70 µM (inactive).

With `Cc1c(OCc2ccccc2)c(=O)ccn1CCNc1c2ccccc2nc2ccccc12` the IC50 [15] was 4 µM (active).

For `O=c1c2cc([N+](=O)[O-])ccc2nc(CN2CCCNCC2)n1-c1ccccc1`, the IC50 [16] was 2.48 µM (inconclusive) and the IC50 [17] was 0.94 µM (active).

For `c1ccc(-c2ccc(OCCn3cnc4ccccc43)cc2)cc1`, the AC50 [18] was > 52 µM (inactive), the AC50 [19] was 0.66 µM (active) and the AC50 [20] was 5.92 µM (active).
